The source of these data is patent US20230017045A1, “PYRIDINE AND PYRIMIDINE CARBOXYLATE HERBICIDES AND METHODS OF USE THEREOF” (Dow AgroSciences LLC, priority 2017, published 2023).

For the experiment, the system named is test plant species. The experiment can be described thus: Post-emergent herbicidal activity test (greenhouse, foliar spray, visual growth reduction). It is filed as in vivo. To be noted: post-emergence, 336 h, 140 g ai/ha, 14 days after application. As for the experimental part: Post-emergent Test: Seeds or nutlets of the desired test plant species were planted in Sun Gro Metro-Mix® 360 planting mixture, which typically has a pH of 6.0 to 6.8 and an organic matter content of about 30 percent, in plastic pots with a surface area of 64 square centimeters. In some aspects, to ensure good germination and healthy plants, a fungicide treatment and/or other chemical or physical treatment was applied. The plants were grown for 7-21 d in a greenhouse with an approximate 15 h photoperiod which was maintained at 23-29° C. during the day and 22-28° C. during the night. Nutrients and water were added on a regular basis and supplemental lighting was provided with overhead metal halide 1000-Watt lamps as necessary. Plants were used for testing when they reached the first or second true leaf stage. A weighed amount, determined by the highest rate to be tested, of each test compound was placed in a 25 mL glass vial and was dissolved in 4 mL of a 97:3 v/v mixture of acetone and DMSO to obtain concentrated stock solutions. […] The concentrated stock solutions obtained were diluted with 20 mL of an aqueous mixture containing acetone, water, isopropyl alcohol, DMSO, […] crop oil concentrate, and X-77 surfactant in a 48.5:39:10:1.5:1.0:0.02 v/v ratio to obtain spray solutions containing the application rate. Compound requirements are based upon a 12 mL application volume at a rate of 187 liters per hectare (L/ha). Formulated compounds were applied to the plant material with an overhead Mandel track sprayer equipped with […] nozzles calibrated to deliver 187 L/ha over an application area of 0.64 square meters at a spray height of 18 inches (43 cm) above the average plant canopy height. Control plants were sprayed in the same manner with the solvent blank. The treated plants and control plants were placed in a greenhouse as described above and watered by subirrigation to prevent wash-off of the test compounds. After 14 d, the condition of the test plants as compared with that of the nontreated and control plants was determined visually and scored on a scale of 0 to 100 percent where 0 corresponds to no injury and 100 corresponds to complete control. In the reporting of the results, Table A: Percent Growth Reduction Conversion Table was used.

Setting [1] is: ALOMY: blackgrass (Alopecurus myosuroides), read-out: Visual Growth Reduction (%) 14 Days After Application, ALOMY.
Where [2] appears, read: AMARE: redroot pigweed (Amaranthus retroflexus), read-out: Visual Growth Reduction (%) 14 Days After Application, AMARE.
Setting [3] is: AVEFA: wild oat (Avena fatua), read-out: Visual Growth Reduction (%) 14 Days After Application, AVEFA.
[4] abbreviates: CHEAL: lambsquarters (Chenopodium album), read-out: Visual Growth Reduction (%) 14 Days After Application, CHEAL.
Setting [5] is: CIRAR: canada thistle (Cirsium arvense), read-out: Visual Growth Reduction (%) 14 Days After Application, CIRAR.
The mark [6] stands for this setting: CYPES: yellow nutsedge (Cyperus esculentus), read-out: Visual Growth Reduction (%) 14 Days After Application, CYPES.
[7] abbreviates: DIGSA: crabgrass (Digitaria sanguinalis), read-out: Visual Growth Reduction (%) 14 Days After Application, DIGSA.
The mark [8] stands for this setting: ECHCG: barnyardgrass (Echinochloa crus-galli), read-out: Visual Growth Reduction (%) 14 Days After Application, ECHCG.
Setting [9] is: IPOHE: ivy-leaf morning glory (Ipomoea hederacea), read-out: Visual Growth Reduction (%) 14 Days After Application, IPOHE.
Setting [10] is: KCHSC: kochia (Bassia scoparia), read-out: Visual Growth Reduction (%) 14 Days After Application, KCHSC.
Setting [11] is: ORYSA: rice (Oryza sativa), read-out: Visual Growth Reduction (%) 14 Days After Application, ORYSA.
The mark [12] stands for this setting: SETFA: giant foxtail (Setaria faberi), read-out: Visual Growth Reduction (%) 14 Days After Application, SETFA.
The mark [13] stands for this setting: SORVU: grain sorghum (Sorghum vulgare), read-out: Visual Growth Reduction (%) 14 Days After Application, SORVU.
[14] abbreviates: STEME: common chickweed (Stellaria media), read-out: Visual Growth Reduction (%) 14 Days After Application, STEME.
The mark [15] stands for this setting: TRZAS: wheat, spring (Triticum aestivum), read-out: Visual Growth Reduction (%) 14 Days After Application, TRZAS.

Like-named read-outs stand apart in the source and are kept apart here.

In the case of `COC(=O)c1nc(-c2ccc(-c3ccc(F)cc3)cc2Cl)ccc1Cl` [F25, methyl 3-chloro-6-(3-chloro-4′-fluoro-[1, 1′-biphenyl]-4-yl) picolinate], the pest or weed control at 140 g/ha runs as follows: under setting [1], 0 to 29%; under setting [2], 0 to 29%; under setting [3], 0 to 29%; under setting [4], 0 to 29%; under setting [5], 0 to 29%; under setting [6], 0 to 29%. Besides, the pest or weed control at 140 g/ha under setting [7] lay within 0 to 29%; the pest or weed control at 140 g/ha under setting [8] lay within 0 to 29%; the pest or weed control at 140 g/ha under setting [9] lay within 0 to 29%; the pest or weed control at 140 g/ha under setting [10] lay within 0 to 29%; the pest or weed control at 140 g/ha under setting [11] is 0 to 29%; the pest or weed control at 140 g/ha under setting [12] fell in the range of 0 to 29%. The pest or weed control at 140 g/ha was 30 to 44% under setting [13], 0 to 29% under setting [14] and 0 to 29% under setting [15].

On to `COC(=O)c1nc(-c2ccc(C(C)=O)cc2Cl)ccc1Cl` [F26, methyl 6-(4-acetyl-2-chlorophenyl)-3-chloropicolinate], for which the pest or weed control at 140 g/ha lay within 0 to 29% under setting [1]; 0 to 29% under setting [2]; 0 to 29% under setting [3]; 0 to 29% under setting [4]; 0 to 29% under setting [5]; 0 to 29% under setting [6]. Further, the pest or weed control at 140 g/ha reads like this: under setting [7], 0 to 29%; under setting [8], 0 to 29%; under setting [9], 0 to 29%; under setting [10], 0 to 29%; under setting [11], 0 to 29%; under setting [12], 0 to 29%. The pest or weed control at 140 g/ha by setting is: under setting [13], 0 to 29%; under setting [14], 0 to 29%; under setting [15], 0 to 29%.

On to `COC(=O)c1nc(-c2ccc(Br)cc2Cl)ccc1Cl` [F27, Methyl 6-(4-bromo-2-chlorophenyl)-3-chloropicolinate], for which the pest or weed control at 140 g/ha under setting [1] fell in the range of 0 to 29%; the pest or weed control at 140 g/ha under setting [2] was in the range of 60 to 74%; the pest or weed control at 140 g/ha under setting [3] lay in the range of 0 to 29%; the pest or weed control at 140 g/ha under setting [4] lay within 45 to 59%; the pest or weed control at 140 g/ha under setting [5] was 75 to 84%; the pest or weed control at 140 g/ha under setting [6] lay within 0 to 29%. Also, the pest or weed control at 140 g/ha is 60 to 74% under setting [7]; 0 to 29% under setting [8]; 85 to 94% under setting [9]; 30 to 44% under setting [10]; 0 to 29% under setting [11]; 0 to 29% under setting [12]. Besides, the pest or weed control at 140 g/ha by setting is: under setting [13], 60 to 74%; under setting [14], 0 to 29%; under setting [15], 0 to 29%.

As for `COC(=O)c1nc(-c2ccc(C(F)(F)F)cc2OC)ccc1Cl` [F28, Methyl 3-chloro-6-(2-methoxy-4-(trifluoromethyl)phenyl)picolinate], the pest or weed control at 140 g/ha by setting is: under setting [1], 0 to 29%; under setting [2], 60 to 74%; under setting [3], 0 to 29%; under setting [4], 60 to 74%; under setting [5], 75 to 84%; under setting [6], 0 to 29%. The pest or weed control at 140 g/ha reads like this: under setting [7], 45 to 59%; under setting [8], 0 to 29%; under setting [9], 95 to 100%; under setting [10], 30 to 44%; under setting [11], 0 to 29%; under setting [12], 30 to 44%. Also, the pest or weed control at 140 g/ha runs as follows: under setting [13], 75 to 84%; under setting [14], 0 to 29%; under setting [15], 0 to 29%.

Take `COC(=O)c1nc(-c2ccc(C(F)(F)F)cc2C)ccc1Cl` [F29, Methyl 3-chloro-6-(2-methyl-4-(trifluoromethyl)phenyl)picolinate]: the pest or weed control at 140 g/ha under setting [1] fell in the range of 0 to 29%; the pest or weed control at 140 g/ha under setting [2] was in the range of 60 to 74%; the pest or weed control at 140 g/ha under setting [3] was in the range of 0 to 29%; the pest or weed control at 140 g/ha under setting [4] was in the range of 60 to 74%; the pest or weed control at 140 g/ha under setting [5] is 0 to 29%; the pest or weed control at 140 g/ha under setting [6] is 0 to 29%. The pest or weed control at 140 g/ha reads like this: under setting [7], 45 to 59%; under setting [8], 0 to 29%; under setting [9], 95 to 100%; under setting [10], 0 to 29%; under setting [11], 0 to 29%; under setting [12], 0 to 29%. The pest or weed control at 140 g/ha lay in the range of 60 to 74% under setting [13], 0 to 29% under setting [14] and 0 to 29% under setting [15].

As to `COC(=O)c1nc(-c2ccc(C(F)(F)F)cc2Br)ccc1Cl` [F30, Methyl 6-(2-bromo-4-trifluoromethyl)phenyl-3-chloropicolinate], the pest or weed control at 140 g/ha is, setting by setting: under setting [1], 60 to 74%; under setting [2], 95 to 100%; under setting [3], 45 to 59%; under setting [4], 95 to 100%; under setting [5], 85 to 94%; under setting [6], 0 to 29%. For the same compound, the pest or weed control at 140 g/ha is, setting by setting: under setting [7], 85 to 94%; under setting [8], 45 to 59%; under setting [9], 95 to 100%; under setting [10], 75 to 84%; under setting [11], 0 to 29%; under setting [12], 45 to 59%. The pest or weed control at 140 g/ha reads like this: under setting [13], 85 to 94%; under setting [14], 0 to 29%; under setting [15], 60 to 74%.

As for `C#Cc1ccc(-c2ccc(C(F)(F)F)cc2Cl)nc1C(=O)OC` [F31, Methyl 6-(2-chloro-4-(trifluoromethyl)phenyl)-3-ethynylpicolinate], the pest or weed control at 140 g/ha runs as follows: under setting [1], 0 to 29%; under setting [2], 45 to 59%; under setting [3], 0 to 29%; under setting [4], 0 to 29%; under setting [5], 0 to 29%; under setting [6], 0 to 29%. Also, the pest or weed control at 140 g/ha was in the range of 0 to 29% under setting [7]; 0 to 29% under setting [8]; 60 to 74% under setting [9]; 0 to 29% under setting [10]; 0 to 29% under setting [11]; 0 to 29% under setting [12]. In addition, the pest or weed control at 140 g/ha reads like this: under setting [13], 45 to 59%; under setting [14], 0 to 29%; under setting [15], 0 to 29%.
